{"source": "patent US10842807B2", "about": "“Methods of treating neurodegenerative disorders comprising DNA methyltransferase inhibitors” (Washington University, priority 2016, dated 2020)", "key": {"[1]": {"test_system": "Bdnf exon IV, exon VI, and IX transcripts in primary cortical neurons from BACHD mice", "assay": "qRT-PCR of Bdnf transcripts in BACHD primary cortical neurons", "assay_type": "cell-based, mouse", "settings": "0.2 μM for 3.5 days, vs. vehicle", "protocol": "RNA was harvested 5 days later and subjected to qRT-PCR for total Bdnf (coding exon IX) using β-actin and 18S rRNA as reference genes. […] FIG. 3C depicts the schematic of the mouse Bdnf locus and the relative RNA levels of the Bdnf exons. White boxes, non-coding exons; gray box, coding exon. qRT-PCR was performed as in using exon-specific Bdnf primers. […] (FIG. 3G, FIG. 3H) Cortical neurons were co-transduced with lenti viruses expressing Htt and indicated shRNA and processed as in (FIG. 3C). […] (FIG. 3I) Primary cortical neurons from BACHD mice were treated with decitabine (0.2 μM) or vehicle for 3.5 days. qRT-PCR was performed using β-actin as a reference gene. […] Data are presented as mean+SEM.\n(§1) Mouse primary cortical and striatal neurons from embryonic day (E) 15.5 Swiss Webster mouse fetuses (Taconic) were first plated in the minimal essential medium (MEM) containing 10% FBS, 0.45% glucose, 1 mM sodium pyruvate, 2 mM glutamine, 20 U/ml penicillin and 20 μg/ml streptomycin, for 3 h and then maintained in serum-free Neurobasal medium (Life Technologies) containing NeuroCult™ SM1 neuronal supplement ([…] Technologies), 0.5 mM glutamine and 25 μM glutamate for the first 3 d in a humidified incubator (37° C. in 5% CO2). Half of the medium was replaced with Neurobasal medium with SM1 and 0.5 mM glutamine every 3 days."}, "[2]": {"settings": "literature refs 64, 65; cited from earlier work"}, "[3]": {"test_system": "downregulated genes in mutant Htt-expressing striatal neurons", "assay": "qRT-PCR of striatal genes in Htt-72Q primary striatal neurons", "assay_type": "cell-based, mouse", "settings": "Htt-72Q striatal neurons", "protocol": "as §1"}, "[4]": {"assay": "In vitro stability: preincubation at 37° C. in saline, then MTS neuroprotection assay", "settings": "0.2 mM in saline preincubated at 37° C. for 11 days, then 0.2 μM on Htt-72Q cortical neurons, MTS at DIV 14", "description": "Primary cortical neurons grown in a 96-well plate were transduced with Htt-expressing lentiviruses at DIV 5 and assessed for mitochondrial metabolic activity at 9 days post-infection (DIV 14) using 3-(4,5-dimethylthiazol-2-yl)-5-(3-carboxymethoxyphenyl)-2-(4-sulfophenyl)-2H-tetrazolium (MTS) (Promega) per manufacturer's instructions. MTS-reducing activity was normalized for each condition to Htt-25Q lentiviruses treated with vehicle or cotransduced with control RNAi lentivirus (=1). Experiments were performed in 3 or more wells per experiment in three to five independent experiments."}, "Htt-72Q mRNA": {"test_system": "Htt-72Q mRNA", "assay": "qRT-PCR for Htt-72Q (human) mRNA in cortical neurons", "assay_type": "cell-based, mouse", "settings": "RNA at DIV 10, compared to vehicle (DMSO)", "quoted_text": "(FIG. 8A) DIV 5 mouse primary cortical neurons were infected with Htt-72Q lentivirus and treated with decitabine or vehicle (DMSO). RNA was prepared at DIV 10 and subjected to qRT-PCR analysis for Htt-72Q (human). β-actin and Hprt were used as reference genes. […] (FIG. 8B) DIV 5cortical neurons were infected with Htt lentivirus and treated with decitabine (0.2 μM) or DMSO. Neurons were fixed at DIV 11-12 and subjected to indirect immunofluorescence with a specific mouse monoclonal Htt antibody EM48, which preferentially detects aggregated mutant protein. Nuclei were labeled with Hoechst 33342. Images were captured using an Operetta high-content imaging system (PerkinElmer) with a 20× objective lens. Bar 100 μm. (FIG. 8C) EM48 immunofluorescence intensity in (FIG. 8B) was quantified using an ImageJ-based macro. […] (FIG. 8D) Cortical neurons transduced and processed as in (FIG. 8A) were directly harvested in SDS sample buffer at DIV 10 and subjected to immunoblotting with anti-Htt EM48 monoclonal antibody. Blot was reprobed with anti-β-actin antibody. Representative immunoblot from 3 independent experiments is shown. […]\nRNAs were isolated from cultured neurons 5 days after infection of Htt lentiviruses and mouse brain using the RNeasy Plus Mini Kit (QIAGEN) and RNeasy Plus Universal Mini Kit (QIAGEN), respectively. […] Relative mRNA levels were calculated using the ΔΔCq method."}, "[5]": {"test_system": "mutant Htt aggregates in Htt-72Q-expressing primary cortical neurons", "assay": "Mutant Htt aggregates, EM48 immunofluorescence and immunoblotting", "assay_type": "cell-based, mouse", "quoted_text": "(FIG. 8A) DIV 5 mouse primary cortical neurons were infected with Htt-72Q lentivirus and treated with decitabine or vehicle (DMSO). […] (FIG. 8B) DIV 5cortical neurons were infected with Htt lentivirus and treated with decitabine (0.2 μM) or DMSO. Neurons were fixed at DIV 11-12 and subjected to indirect immunofluorescence with a specific mouse monoclonal Htt antibody EM48, which preferentially detects aggregated mutant protein. Nuclei were labeled with Hoechst 33342. Images were captured using an Operetta high-content imaging system (PerkinElmer) with a 20× objective lens. Bar 100 μm. (FIG. 8C) EM48 immunofluorescence intensity in (FIG. 8B) was quantified using an ImageJ-based macro. […] (FIG. 8D) Cortical neurons transduced and processed as in (FIG. 8A) were directly harvested in SDS sample buffer at DIV 10 and subjected to immunoblotting with anti-Htt EM48 monoclonal antibody. Blot was reprobed with anti-β-actin antibody. Representative immunoblot from 3 independent experiments is shown. […] Data in (FIG. 8A) and (FIG. 8C) are presented as mean+SEM.\nImage capture and quantification of Htt (EM48) immunofluorescence intensity were performed as described for those of NF."}, "[6]": {"test_system": "Htt-72Q-expressing primary cortical neurons", "assay": "Epigenetic drug library screen, resazurin (Alamar Blue) assay", "assay_type": "cell-based, mouse", "settings": "0.02, 0.2, 2 μM added at DIV 6, resazurin at DIV 14; hits validated by MTS", "quoted_text": "As epigenetic gene regulation is a cell-type specific mechanism, we used a physiologically relevant, post-mitotic cortical neuron culture system for this screen. In this system, lentivirus-mediated expression of the exon 1-encoded N-terminal fragment of mutant Htt (Htt-72Q with a 72 glutamine repeat), but not wild-type (WT) Htt (Htt-25Q), induces neurotoxicity^38. […] In the drug screen, the viability of Htt-expressing cortical neurons was determined by the resazurin (Alamar Blue) assay, a quantitative measurement of mitochondrial metabolic activity, which correlates with cell viability.\nEpigenetic drug screen was performed using a primary cortical neuron model of HD with a drug library composed of 84 compounds (Table 1), among which 80 drugs are purchased from Cayman Chemical (Epigenetic Screening Library Item No 11076) and four drugs, SGC0946, EPZ5676, EPZ6438, and GSK126, were obtained from Xcessbio Biosciences Inc. Mouse primary cortical neurons were plated on 96-well flat clear bottom black plates (Corning #3904). WT or mutant Htt exon1 fragment (Htt-25Q or Htt-72Q)-expressing lentiviruses are infected at DIV 5 as described above. The 84 compounds were added to the media at DIV 6 one day after Htt lentiviral infection with three different doses (0.02, 0.2, 2 μM) for each compound at triplicates. DMSO was used as control. Media containing compounds or DMSO were changed every three days to maintain the compounds' activity. At DIV 14, the viability of neurons was determined by resazurin (Alamar blue) assay, a quantitative measurement of mitochondrial metabolic activity. The screen was fully automated and performed in the High-Throughput Screening Center in Washington University School of Medicine. Any possible plate effects were determined using control plates treated with DMSO and used for normalization. Screen hits were validated by MTS assay."}, "[7]": {"settings": "cited from earlier work"}, "[8]": {"test_system": "Htt-72Q-expressing primary cortical neurons", "assay": "Cell death by nuclear morphology (Hoechst 33342)", "assay_type": "cell-based, mouse", "settings": "vs. Htt-72Q (0 μM)", "protocol": "Mouse primary cortical and striatal neurons from embryonic day (E) 15.5 Swiss Webster mouse fetuses (Taconic) were first plated in the minimal essential medium (MEM) containing 10% FBS, 0.45% glucose, 1 mM sodium pyruvate, 2 mM glutamine, 20 U/ml penicillin and 20 μg/ml streptomycin, for 3 h and then maintained in serum-free Neurobasal medium (Life Technologies) containing NeuroCult™ SM1 neuronal supplement ([…] Technologies), 0.5 mM glutamine and 25 μM glutamate for the first 3 d in a humidified incubator (37° C. in 5% CO2). Half of the medium was replaced with Neurobasal medium with SM1 and 0.5 mM glutamine every 3 days. Primary cortical neurons plated on 96-well flat clear bottom black plates (Corning #3904) at 4×10^4 cells/well were infected with Htt exon1 expression lentivirus (Htt-25Q or Htt-72Q) or control empty vector lentivirus at 5 days in vitro (DIV 5). Primary striatal neurons plated on 96-well plates at 1×10^5 cells/well were infected with Htt exon1 expression lentivirus at DIV 4. Viral copy number was adjusted for transduction of neurons on the basis of titer measured using the Lenti-X qRT-PCR titration kit (Clontech), and equal numbers of viral particles of Htt-25Q and Htt-72Q expressing lentiviruses were used for transduction. For the experiments to test effects of DNMT inhibitors, neurons were treated with inhibitors six hours after Htt lentiviral infection. […]"}, "cytidine deaminase": {"biological_target": "T1, cytidine deaminase (Homo sapiens, UniProt P32320)", "T1 construct": "host or cells: liver (in vivo)", "T1 sequence (P32320 whole entry, species assumed)": "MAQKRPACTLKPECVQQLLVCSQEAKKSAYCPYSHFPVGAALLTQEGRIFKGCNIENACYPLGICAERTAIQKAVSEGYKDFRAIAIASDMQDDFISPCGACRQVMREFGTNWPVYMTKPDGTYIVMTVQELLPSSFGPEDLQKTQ", "settings": "literature refs 62, 64; cited from earlier work"}}}
{"smiles": "Nc1ncn([C@H]2C[C@H](O)[C@@H](CO)O2)c(=O)n1", "note": "[decitabine, 5-aza-2′-deoxycytidine]", "values": [{"measurement": "expression of Bdnf exon IV, exon VI, and IX transcripts", "setting": "[1]", "value": "increased expression of Bdnf exon IV, exon VI, and IX transcripts"}, {"measurement": "in vitro stability as reported previously", "setting": "[2]", "value": "instability"}, {"measurement": "mRNA levels of Kdm8 (specificity control)", "setting": "[3]", "value": "unchanged"}, {"measurement": "expression of downregulated genes (Drd2, Ppp1r1b, Penk, Pcp4, Rasd2)", "setting": "[3]; RNA 5 days after infection, vs. Htt-72Q plus vehicle", "value": "restored the expression of downregulated genes"}, {"measurement": "neuroprotective activity after preincubation (in vitro stability)", "setting": "[4]", "value": "lost its activity"}, {"measurement": "levels of Htt-72Q mRNA", "setting": "Htt-72Q mRNA", "value": "did not decrease the levels of Htt-72Q mRNA"}, {"measurement": "levels of mutant Htt aggregates (EM48 immunofluorescence intensity)", "setting": "[5]; 0.2 μM, fixed at DIV 11-12, vs. Htt-72Q-DMSO", "value": "significantly decreased the levels of mutant Htt aggregates"}, {"measurement": "aggregated high molecular weight mutant Htt in stacking gel (EM48 immunoblot)", "setting": "[5]; harvested at DIV 10", "value": "could decrease the levels of aggregated high molecular weight mutant Htt"}, {"measurement": "outcome in epigenetic drug screen (84 compounds)", "setting": "[6]", "value": "the most effective drug"}, {"measurement": "blood-brain barrier crossing", "setting": "[7]; literature refs 62, 63", "value": "reported to cross the blood-brain barrier"}, {"measurement": "in vivo half-life", "setting": "[7]; literature refs 62, 64", "value": "< 20", "unit": "min"}, {"measurement": "Htt-72Q induced cell death (condensed or fragmented nuclei)", "setting": "[8]", "value": "blocked Htt-72Q induced cell death"}, {"measurement": "degradation by cytidine deaminase in the liver", "setting": "cytidine deaminase", "value": "degraded rapidly"}]}
